Where no end group is shown, it is not given here. [ ]: non-standard residue; d: D form. Aib = CC(C)(N)C(=O)O
Experiments:
[1] = tested on: C57BL/6 마우스, high trans-fat diet NAFLD model; assay: In vivo activity 2 and 3: NAFLD model, C57BL/6 mice on high trans-fat diet (40% fat, 20% fructose, 2% cholesterol) for about 16 weeks; parameters: species or system mouse; conditions: 20 nmol/kg s.c. every third day for 4 weeks; also lower than liraglutide 53 nmol/kg daily
[2] = tested on: C57BL/6 마우스, high fat diet NAFLD model; assay: In vivo activity 1: NAFLD model, C57BL/6 mice on 60% high fat diet for about 24 weeks; parameters: species or system mouse; conditions: 20 nmol/kg s.c. every second day for 2 weeks; also lower than liraglutide 100 nmol/kg daily
글루카곤 수용체(GCGR) = biological target: T1, 글루카곤 수용체(GCGR) (Homo sapiens, UniProt P47871); assay: Glucagon receptor activity, cAMP Hunter eXpress GCGR CHO-K1 GPCR assay; format: cell-based; conditions: CHO-K1 cells with human glucagon receptor; 30 min at 37℃; cAMP production
T1 construct: host or cells: CHO-K1
T1 sequence (P47871 26-477): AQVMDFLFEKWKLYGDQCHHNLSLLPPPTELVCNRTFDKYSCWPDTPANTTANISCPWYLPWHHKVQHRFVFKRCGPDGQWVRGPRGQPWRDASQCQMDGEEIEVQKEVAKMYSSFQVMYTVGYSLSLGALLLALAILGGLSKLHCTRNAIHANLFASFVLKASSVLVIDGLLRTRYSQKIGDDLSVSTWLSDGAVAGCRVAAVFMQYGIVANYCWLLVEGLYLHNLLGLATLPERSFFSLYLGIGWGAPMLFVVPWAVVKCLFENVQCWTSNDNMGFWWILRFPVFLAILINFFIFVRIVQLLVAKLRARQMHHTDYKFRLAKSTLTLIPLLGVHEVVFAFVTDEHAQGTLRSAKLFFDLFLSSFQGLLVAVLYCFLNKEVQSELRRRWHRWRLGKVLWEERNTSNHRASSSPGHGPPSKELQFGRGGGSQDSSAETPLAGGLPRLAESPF

[3] = biological target: GLP-1 수용체 (GLP-1 receptor) (Homo sapiens, UniProt P43220); conditions: read-out: GLP-1의 수용체 EC50; HEK293/CRE-Luc cells with human GLP-1 receptor; 4 h at 37℃; luciferase reporter for cAMP
Chain of GLP-1 수용체 (GLP-1 receptor) (P43220 24-463): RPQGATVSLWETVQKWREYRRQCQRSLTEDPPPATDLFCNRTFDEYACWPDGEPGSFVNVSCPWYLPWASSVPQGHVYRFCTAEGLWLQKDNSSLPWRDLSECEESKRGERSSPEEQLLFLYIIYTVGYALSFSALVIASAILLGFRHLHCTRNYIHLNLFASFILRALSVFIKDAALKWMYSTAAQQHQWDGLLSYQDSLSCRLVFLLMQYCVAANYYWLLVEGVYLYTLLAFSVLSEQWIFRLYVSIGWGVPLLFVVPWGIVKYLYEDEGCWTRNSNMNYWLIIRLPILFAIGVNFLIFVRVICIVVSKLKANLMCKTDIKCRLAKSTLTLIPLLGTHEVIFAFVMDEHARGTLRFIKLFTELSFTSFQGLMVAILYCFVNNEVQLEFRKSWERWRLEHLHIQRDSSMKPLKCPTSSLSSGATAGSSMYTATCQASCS

실시예 2: 서열번호 2 H(Aib)QGTFTSDYSKYLDEQAAKEFVQWLMNTC polypeptide conjugated to 3중 가지형 mPEG-MAL(MW: 50 kDa) (H[Aib]QGTFTSDYSKYLDEQAAKEFVQWLMNTC; numbers in words are those of the source; also: conjugated to 3-branched mPEG-MAL 50 kDa, site not given here)
Hepatic triglyceride vs vehicle group (Fig. 8) [1]: 유의적으로 감소 | Liver steatosis, H&E and oil-red-O histology vs vehicle group (Fig. 9) [1]: 현저하게 감소 | Liver weight vs vehicle group (Fig. 7) [1]: 유의적으로 감소 | NAFLD activity score (NAS) vs vehicle group (Fig. 10) [1]: 유의적으로 감소 | Serum cholesterol level vs vehicle group (Fig. 6) [1]: 유의적으로 감소 | Liver steatosis, H&E histology vs PBS-treated group (Fig. 5) [2]: 현저하게 감소 | Liver weight vs PBS-treated group (Fig. 4) [2]: 유의적으로 감소 | Serum cholesterol level vs PBS-treated group (Fig. 3) [2]: 유의적으로 감소 | EC50 (글루카곤 수용체(GCGR)): 47 nM | EC50 [3]: 2.12 nM

Reference: patent publication KR20210110252A, “폴리펩티드를 포함하는 비알코올성 지방간 질환의 예방 또는 치료용 약학 조성물” (㈜ 디앤디파마텍, priority 2019, dated 2021)
